Results as given in US6984646B2, “Imidazopyridinones as p38 map kinase inhibitors” (Bayer Healhcare AG, priority 2001, dated 2006).

Each molecule was assayed against p38 map kinase (Homo sapiens, UniProt Q16539) (assay: P38 map kinase assay (SPA)). Conditions: SPA [33-P] assay, biotinylated myelin basic protein substrate 2.5 μM, 10 μM ATP, 90 min 30° C.
Assay type: biochemical
Text: The assay makes use of the serine/threonine protein kinase SPA [33-P]+assay kit from Amersham Pharmacia Biotech. The assay is a homogeneous technique using SPA technology for the quantification of serine threonine kinase activity.
It is based on the p38 map kinase catalysed transfer of the γ-phosphate group of the [γ-^33P] ATP to the substrate, biotinylated myelin basic protein (MBP). The resulting [^33P]-labelled biotinylated product is trapped on a PVT SPA bead containing scintillant which has been surface coated with streptavidin.
The beads are allowed to settle to eliminate high background, and therefore only ^33P labelled product attached to the SPA bead is detected.
The assay is carried out in the presence and absence of test compounds to determine their effect on p38 map kinase activity.
A Test Protocol is as Follows:
• 1. SPA assay kit (Amersham). Components: • Assay buffer (store frozen) • Stop solution (store frozen) • Streptavidin coated SPA beads—reconstitute with 5 mls of PBS. (50 mg/ml). (Store in fridge) • 2. p38 map kinase enzyme SCRD (500 μg/ml)−aliquoted in 1.5 mls. • dilute 1:10 to 50 μg/ml • 1 plate: −110 μl (stock 500 μg/ml)+[…] PBS. • 3. Assay reagent: • for 1 plate: −504 μl Assay buffer (500 Mm MOPS pH7.2, 10 μM ATP, • 50 mM MgCl2, 25 μM biotinylated myelin basic protein (MBP)). • 2513.4 μl Water • 1.1 μl 33-p-ATP ([…]) (on activity date/adjust for activity date) • 4.534 μl×10^-2M ATP in water • 4. Stop solution: • for 1 plate: −265.92 μl streptavidin coated beads (50 mg/ml) • 1651.68 μl stop buffer (500 μM ATP, 50 mM EDTA 1% Triton X-100) • 7084.32 μl PBS. • 1. Add 10 μcompound Dilutions (5× final conc) Test wells. • 2. Add 10 μl 12.5% DMSO to control/blank wells. • 3. Add 10 μl enzyme (50 μg/ml)−final conc 500 ng/well • 4. Add 10 μPBS to blank wells. • 5. Add 30 μL of assay reagent to each well. (final conc 10 μM ATP, 2.5 μM substrate) • 6. Mix well on plate shaker • 7. Incubate 90 min (30° C.) • 8. Add 75 μl of stop solution to each well (final conc 55 μM ATP) • 9. Spin plate: −3 min/1600 rpm/20° C. (alternatively leave to settle overnight) • 10. Read in Microbeta, Protocol SPA paralux 3.

Sequence of p38 map kinase (Q16539 whole entry): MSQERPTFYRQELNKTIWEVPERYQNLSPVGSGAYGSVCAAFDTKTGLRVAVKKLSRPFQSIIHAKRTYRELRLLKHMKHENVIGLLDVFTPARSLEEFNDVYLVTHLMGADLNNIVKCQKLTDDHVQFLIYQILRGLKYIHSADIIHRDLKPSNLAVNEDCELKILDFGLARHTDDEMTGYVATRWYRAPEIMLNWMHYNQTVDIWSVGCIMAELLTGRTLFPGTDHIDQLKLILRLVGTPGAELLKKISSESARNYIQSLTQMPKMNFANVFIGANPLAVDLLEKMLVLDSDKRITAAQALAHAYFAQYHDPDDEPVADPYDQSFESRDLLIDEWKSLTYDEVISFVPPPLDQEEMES

| IC50 | Structure (SMILES) |
| --- | --- |
| 518 nM | O=C(c1ccccc1)c1ccc(=O)n2c1[nH]c1ccccc12 [Example 1, 4-Benzoylpyrido[1,2-a]benzimidazol-1(5H)-one] |
| 329 nM | Cc1[nH]c2c(C(=O)c3ccc(F)cc3)ccc(=O)n2c1C [Example 2, 8-(4-Fluorobenzoyl)-2,3-dimethylimidazo[1,2-a]pyridin-5(1H)-one] |
| 235 nM | Cc1[nH]c2c(C(=O)c3ccccc3F)ccc(=O)n2c1C [Example 3, 8-(2-Fluorbenzoyl)-2,3-dimethylimidazo[1,2-a]pyridin-5(1H)-one] |
| 111 nM | O=C(c1ccccc1)c1ccc(=O)n2c3c([nH]c12)CCCC3 [Example 5, 4-Benzoyl-6,7,8,9-tetrahydropyrido[1,2-a]benzimidazol-1(5H)-one] |
| 96 nM | O=C(c1ccc(F)cc1F)c1ccc(=O)n2c3c([nH]c12)CCCC3 [Example 38, 4-(2,4-Difluorobenzoyl)-6,7,8,9-tetrahydropyrido[1,2-a]benzimidazol-1(51)-one] |
